Like-named read-outs stand apart in the source and are kept apart here.
Key:
m17β-HSD2 = target: T1, m17β-HSD2 (Mus musculus, UniProt P51658); test: Inhibition of m17β-HSD2 in cell-free assay; type: biochemical; settings: for % inh. at 1 μM m17β-HSD2: mouse liver microsomal fraction, substrate E2 [500 nM], cofactor NAD+ [1500 μM], Table 1
T1 construct: The microsomal fraction (m17β-HSD2) was obtained from mouse liver as described for h17β-HSD2; tissue Pharmacelsus GmbH (mouse livers); host or cells: mouse liver, microsomal fraction
T1 sequence (P51658 1-381): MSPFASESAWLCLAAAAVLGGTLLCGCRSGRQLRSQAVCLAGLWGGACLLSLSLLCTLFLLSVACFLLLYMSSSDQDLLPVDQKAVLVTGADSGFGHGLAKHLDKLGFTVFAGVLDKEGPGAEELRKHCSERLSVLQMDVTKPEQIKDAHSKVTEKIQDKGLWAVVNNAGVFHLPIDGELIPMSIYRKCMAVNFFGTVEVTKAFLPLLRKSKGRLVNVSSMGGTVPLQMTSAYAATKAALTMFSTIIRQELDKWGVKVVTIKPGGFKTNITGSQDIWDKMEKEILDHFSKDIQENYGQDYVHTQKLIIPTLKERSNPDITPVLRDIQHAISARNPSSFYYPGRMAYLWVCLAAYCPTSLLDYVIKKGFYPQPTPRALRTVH
Procedure: (§1) h17β-HSD2, h17β-HSD1, m17β-HSD2 and m17β-HSD1 cell-free assays were performed similarly, by incubating enzyme, tritiated substrate, cofactor and inhibitor, according to described procedures.
The microsomal fraction (m17β-HSD2) was obtained from mouse liver as described for h17β-HSD2. Inhibitory activities were evaluated by a method identical to the one described for the human enzyme.
(§2) Inhibitory activities were evaluated following an established method with minor modifications. Briefly, the enzyme preparation was incubated with NAD^+ [1500 μM] in the presence of potential inhibitors at 37C in a phosphate buffer (50 mM) supplemented with 20% of glycerol and EDTA 1mM. Inhibitor stock solutions were prepared in DMSO. Final concentration of DMSO was adjusted to 1% in all samples. […] After 20 min, the incubation was stopped with HgCl2 and the mixture was extracted with ether. After evaporation, the steroids were dissolved in acetonitrile/water (45:55). […] Detection and quantification of the steroids were performed using a radioflow detector (Berthold Technologies, Bad Wildbad). […] Each value was calculated from at least two independent experiments.

h17β-HSD2 [1] = target: T2, h17β-HSD2 (Homo sapiens, UniProt P37059); design: from tissue; host or cells: human placenta, microsomal fraction; settings: human placental microsomal fraction, substrate E2 [500 nM], cofactor NAD+ [1500 μM]; previously described inhibitors; cited from earlier work
T2 sequence (P37059 1-387): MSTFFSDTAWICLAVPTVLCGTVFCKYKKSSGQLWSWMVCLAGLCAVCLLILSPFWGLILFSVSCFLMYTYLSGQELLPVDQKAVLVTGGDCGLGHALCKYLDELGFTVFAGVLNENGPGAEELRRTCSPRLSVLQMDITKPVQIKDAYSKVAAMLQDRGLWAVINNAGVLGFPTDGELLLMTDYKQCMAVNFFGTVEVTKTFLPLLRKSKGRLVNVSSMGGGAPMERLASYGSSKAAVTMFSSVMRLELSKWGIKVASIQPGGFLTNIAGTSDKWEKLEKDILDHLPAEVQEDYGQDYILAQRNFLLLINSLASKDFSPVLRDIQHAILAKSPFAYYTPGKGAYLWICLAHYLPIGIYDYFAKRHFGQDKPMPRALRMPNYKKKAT

h17β-HSD1 = target: T3, h17β-HSD1 (Homo sapiens, UniProt P14061); test: Inhibition of h17β-HSD1 in cell-free assay; type: biochemical; settings: human placental cytosolic fraction, substrate E1 [500 nM], cofactor NADH [500 μM]
T3 construct: h17β-HSD1 was obtained after precipitation with ammonium sulfate from the cytosolic fraction; from tissue; host or cells: human placenta, cytosolic fraction
T3 sequence (P14061 1-328): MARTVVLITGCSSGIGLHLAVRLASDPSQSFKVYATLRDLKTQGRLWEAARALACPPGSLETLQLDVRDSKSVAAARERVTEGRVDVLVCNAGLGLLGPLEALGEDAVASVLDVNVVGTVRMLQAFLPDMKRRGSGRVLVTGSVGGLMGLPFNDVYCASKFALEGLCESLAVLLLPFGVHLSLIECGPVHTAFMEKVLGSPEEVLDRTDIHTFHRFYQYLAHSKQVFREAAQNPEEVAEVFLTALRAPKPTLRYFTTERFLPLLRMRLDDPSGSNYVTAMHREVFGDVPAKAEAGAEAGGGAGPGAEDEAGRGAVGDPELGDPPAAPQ
Procedure: as §1
(§3) Cytosolic (h17β-HSD1) and microsomal (h17β-HSD2) fractions were obtained from human placenta according to previously described procedures. Fresh tissue was homogenized and the enzymes were separated from the mitochondria, cell membrane. Nucleus and other rests by fractional centrifugation at 1000 g, 10.000 g and 150.000 g. The pellet fraction containing the microsomal h17β-HSD2 was used for the determination of h17β-HSD2 inhibition, while h17β-HSD1 was obtained after precipitation with ammonium sulfate from the cytosolic fraction for use of testing of h17β-HSD1 inhibition. Aliquots containing h17β-HSD1 or h17β-HSD2 were stored frozen.
The 17β-HSD1 inhibition assay was performed similarly to the h17β-HSD2 test. The human cytosolic enzyme was incubated with NADH [500 μM] while the mouse recombinant enzyme was reacted with NADPH [500 μM].Test compound and a mixture of unlabelled- and [^3H]-E1 (final concentration: 500 nM, 0.15 μCi) were added and mixed for 10 min at 37°C. Further treatment of the samples and HPLC separation was carried out as mentioned above for h17β-HSD2.

ERα = target: T4, ERα (Homo sapiens, UniProt P03372); test: Estrogen receptor affinity in a cell-free assay (ERα); type: binding; settings: 1000-fold excess relative to E2; recombinant human ERα
T4 sequence (P03372 1-595): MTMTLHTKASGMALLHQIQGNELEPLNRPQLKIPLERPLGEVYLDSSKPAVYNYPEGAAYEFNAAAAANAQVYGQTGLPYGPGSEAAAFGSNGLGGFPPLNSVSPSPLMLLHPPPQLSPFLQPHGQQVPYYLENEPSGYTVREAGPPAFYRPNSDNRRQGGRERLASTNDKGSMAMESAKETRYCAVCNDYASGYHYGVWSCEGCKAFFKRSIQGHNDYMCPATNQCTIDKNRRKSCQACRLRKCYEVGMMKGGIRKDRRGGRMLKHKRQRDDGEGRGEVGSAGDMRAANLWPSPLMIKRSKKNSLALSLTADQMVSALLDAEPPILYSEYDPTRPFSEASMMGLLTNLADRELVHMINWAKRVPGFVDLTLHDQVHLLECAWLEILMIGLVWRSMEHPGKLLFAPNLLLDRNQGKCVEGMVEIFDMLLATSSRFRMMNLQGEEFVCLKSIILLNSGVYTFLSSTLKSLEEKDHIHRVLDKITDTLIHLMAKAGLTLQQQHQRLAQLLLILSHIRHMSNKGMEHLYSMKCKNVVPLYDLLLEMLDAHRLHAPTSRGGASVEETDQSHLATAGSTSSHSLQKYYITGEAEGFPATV
Procedure: (§4) The binding affinity of selected compounds to ERα and ERβ was determined according to the recommendations of the US Environmental Protection Agency (EPA) by their Endocrine Disruptor Screening Program (EDSP)[24] using recombinant human proteins.
(§5) The potential inhibitors were dissolved in DMSO (5% final concentration). […] After incubation, ligand-receptor complexes were selectively bound to hydroxyapatite (83.5 g/LinTE-buffer). The bound complex was washed three times and resuspended in ethanol. For radiodetection, scintillator cocktail (Quickszint 212, Zinsser Analytic, Frankfurt) was added and samples were measured in a liquid scintillation counter (1450 LSC & Luminescence Counter, Perkin Elmer).
(§6) After the assay was established and validated, a modification was made to increase throughput.

ERβ = ERβ (Homo sapiens, UniProt Q92731); test: Estrogen receptor affinity in a cell-free assay (ERβ); type: binding; settings: 1000-fold excess relative to E2; recombinant human ERβ
Procedure: as §4, §5, §6

[2] = Metabolic stability in a cell-free assay (liver S9 fraction); type: in vitro ADME; settings: pooled liver S9 fraction; human liver S9 fraction 1 mg/ml, NADPH regenerating system, UDPGA, PAPS, 37°C; inhibitor 1 μM; read-out: Inhibitor t1/2
Procedure: Compounds 7a, 8a, 16a, 19a, 22a, 27a and 27 were tested according to established method[33–35]For evaluation of phase I and II metabolic stability 1 μM compound was incubated with 1 mg/ml pooled mammalian liver S9 fraction (BD Gentest), 2 mM NADPH regenerating system, 1 mM UDPGA and 0.1 mM PAPS at 37°C for 0, 5, 15 and 60 minutes at a final volume of 100 μL. The incubation was stopped by precipitation of S9 enzymes with 2 volumes of cold acetonitrile containing internal standard. Concentration of the remaining test compound at the different time points was analyzed by LC-MS/MS and used to determine half-life (t1/2).

h17β-HSD2 [3] = target: T2, h17β-HSD2; test: Inhibition of h17β-HSD2 in cell-free assay; type: biochemical; design: from tissue; host or cells: human placenta, microsomal fraction
Procedure: as §1, §3, §2

ERβ, sequence (Q92731 whole entry): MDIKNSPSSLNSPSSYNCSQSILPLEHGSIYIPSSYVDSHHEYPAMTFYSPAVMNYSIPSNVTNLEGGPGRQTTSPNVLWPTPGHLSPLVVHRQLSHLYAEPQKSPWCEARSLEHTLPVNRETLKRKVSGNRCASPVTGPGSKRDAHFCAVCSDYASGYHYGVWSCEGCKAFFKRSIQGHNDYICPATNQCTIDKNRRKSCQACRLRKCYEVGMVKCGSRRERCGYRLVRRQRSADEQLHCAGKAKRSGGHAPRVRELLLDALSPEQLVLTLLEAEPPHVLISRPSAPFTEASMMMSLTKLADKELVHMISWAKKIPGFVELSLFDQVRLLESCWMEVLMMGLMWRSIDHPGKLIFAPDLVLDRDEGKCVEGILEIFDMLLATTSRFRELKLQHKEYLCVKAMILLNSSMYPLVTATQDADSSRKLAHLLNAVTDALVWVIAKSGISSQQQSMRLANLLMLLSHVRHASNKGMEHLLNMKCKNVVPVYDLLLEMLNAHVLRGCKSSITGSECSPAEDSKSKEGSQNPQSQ

Row | % inh. at 1 μM m17β-HSD2 (m17β-HSD2) | SMILES | IC50 (h17β-HSD2 [1]) | further results
1 | 40% | COc1cccc(N(C)C(=O)c2ccc(-c3cccc(N(C)C)c3)s2)c1 [Compound 1g] | 170 nM | 
2 | 25% | COc1cccc(-c2cccc(C(=O)N(C)c3cccc(OC)c3)c2)c1 [Compound 4a] | 520 nM | 

The remaining lines, values behind:

Row | SMILES | % inh. at 1 μM m17β-HSD2 (m17β-HSD2) | IC50 (h17β-HSD2 [1]) | further results
3 | COc1cccc(N(C)C(=O)c2ccc(-c3cccc(OC)c3F)s2)c1 [Compound 1j] | 26% | 62 nM | 
4 | CN(Cc1cccc(O)c1)C(=O)c1cccc(-c2cccc(O)c2)c1 [Compound 4e] | 29% | 640 nM | 
5 | COc1cccc(CN(C)C(=O)c2ccc(-c3cccc(C)c3F)cc2)c1 [Compound 25a, 2'-Fluoro-N-(3-methoxybenzyl)-N,3'-dimethyl-[1,1'-biphenyl]-4-carboxamide] |  |  | inhibition at 1 µM (m17β-HSD2; read-out: % inh. at 1 μM m17β-HSD2): 43%; IC50 (h17β-HSD1): 87 µM; displacement of E2 from ERα (ERα): ≤ 20%; displacement of E2 from ERβ (ERβ): ≤ 20%; half-life at 1 μM [2]: 103 min; IC50 (h17β-HSD2 [3]): 310 nM; s.f. (selectivity factor) = IC50(17β-HSD1)/IC50(17β-HSD2) (h17β-HSD2 [3]; human enzymes, cell-free): 283

Source: publication PMC4521925, “17β-Hydroxysteroid Dehydrogenase Type 2 Inhibition: Discovery of Selective and Metabolically Stable Compounds Inhibiting Both the Human Enzyme and Its Murine Ortholog” (PLoS ONE, 2015)
